Reference: the kinase profiling compilation of Christmann-Franck et al. (2016)
Values joined by “and” are separate entries in the source; they are usually repeats but may differ in a detail not shown here. Identical values can stand only once.

How the values were obtained:
Experiment in all cases: Caliper, Mobility shift assay off-chip
AURKC (human) = AURKC (human) (UniProt Q9UQB9)
BLK (human) = BLK (human) (UniProt P51451)
CAMK2A (human) = CAMK2A (human) (UniProt Q9UQM7)
CDC42BPB (human) = CDC42BPB (human) (UniProt Q9Y5S2)
CHEK2 (human) = CHEK2 (human) (UniProt O96017)
CLK2 (human) = CLK2 (human) (UniProt P49760)
CLK3 (human) = CLK3 (human) (UniProt P49761)
CSNK1D (human) = CSNK1D (human) (UniProt P48730)
CSNK2A2 (human) = CSNK2A2 (human) (UniProt P19784)
DDR1 (human) = DDR1 (human) (UniProt Q08345)
DYRK3 (human) = DYRK3 (human) (UniProt O43781)
EPHA1 (human) = EPHA1 (human) (UniProt P21709)
EPHA8 (human) = EPHA8 (human) (UniProt P29322)
HCK (human) = HCK (human) (UniProt P08631)
MAPK1 (human) = MAPK1 (human) (UniProt P28482)
MAPKAPK3 (human) = MAPKAPK3 (human) (UniProt Q16644)
MARK4 (human) = MARK4 (human) (UniProt Q96L34)
MINK1 (human) = MINK1 (human) (UniProt Q8N4C8)
MST4 (human) = MST4 (human) (UniProt Q9P289)
MUSK (human) = MUSK (human) (UniProt O15146)
MYLK2 (human) = MYLK2 (human) (UniProt Q9H1R3)
NTRK2 (human) = NTRK2 (human) (UniProt Q16620)
NUAK1 (human) = NUAK1 (human) (UniProt O60285)
PRKAA2 (human) = PRKAA2 (human) (UniProt P54646)
PRKACG (human) = PRKACG (human) (UniProt P22612)
PRKCE (human) = PRKCE (human) (UniProt Q02156)
PRKCI (human) = PRKCI (human) (UniProt P41743)
PRKCZ (human) = PRKCZ (human) (UniProt Q05513)
SIK1 (human) = SIK1 (human) (UniProt P57059)
SPHK2 (human) = SPHK2 (human) (UniProt Q9NRA0)
STK24 (human) = STK24 (human) (UniProt Q9Y6E0)
TAB1 (human) = TAB1 (human) (UniProt Q15750)

CSNK1D (human), sequence (P48730 whole entry, looked up): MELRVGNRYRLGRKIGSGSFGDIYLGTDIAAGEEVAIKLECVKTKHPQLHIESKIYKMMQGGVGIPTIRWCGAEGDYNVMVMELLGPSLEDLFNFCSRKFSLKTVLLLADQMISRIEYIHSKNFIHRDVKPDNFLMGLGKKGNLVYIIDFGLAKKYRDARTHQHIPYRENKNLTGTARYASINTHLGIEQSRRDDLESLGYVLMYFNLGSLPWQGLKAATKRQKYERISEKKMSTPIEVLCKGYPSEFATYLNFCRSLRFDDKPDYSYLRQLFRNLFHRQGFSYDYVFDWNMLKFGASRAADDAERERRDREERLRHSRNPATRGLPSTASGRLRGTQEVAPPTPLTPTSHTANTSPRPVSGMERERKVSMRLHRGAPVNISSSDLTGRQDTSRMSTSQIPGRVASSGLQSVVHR
CDC42BPB (human), sequence (Q9Y5S2 whole entry, looked up): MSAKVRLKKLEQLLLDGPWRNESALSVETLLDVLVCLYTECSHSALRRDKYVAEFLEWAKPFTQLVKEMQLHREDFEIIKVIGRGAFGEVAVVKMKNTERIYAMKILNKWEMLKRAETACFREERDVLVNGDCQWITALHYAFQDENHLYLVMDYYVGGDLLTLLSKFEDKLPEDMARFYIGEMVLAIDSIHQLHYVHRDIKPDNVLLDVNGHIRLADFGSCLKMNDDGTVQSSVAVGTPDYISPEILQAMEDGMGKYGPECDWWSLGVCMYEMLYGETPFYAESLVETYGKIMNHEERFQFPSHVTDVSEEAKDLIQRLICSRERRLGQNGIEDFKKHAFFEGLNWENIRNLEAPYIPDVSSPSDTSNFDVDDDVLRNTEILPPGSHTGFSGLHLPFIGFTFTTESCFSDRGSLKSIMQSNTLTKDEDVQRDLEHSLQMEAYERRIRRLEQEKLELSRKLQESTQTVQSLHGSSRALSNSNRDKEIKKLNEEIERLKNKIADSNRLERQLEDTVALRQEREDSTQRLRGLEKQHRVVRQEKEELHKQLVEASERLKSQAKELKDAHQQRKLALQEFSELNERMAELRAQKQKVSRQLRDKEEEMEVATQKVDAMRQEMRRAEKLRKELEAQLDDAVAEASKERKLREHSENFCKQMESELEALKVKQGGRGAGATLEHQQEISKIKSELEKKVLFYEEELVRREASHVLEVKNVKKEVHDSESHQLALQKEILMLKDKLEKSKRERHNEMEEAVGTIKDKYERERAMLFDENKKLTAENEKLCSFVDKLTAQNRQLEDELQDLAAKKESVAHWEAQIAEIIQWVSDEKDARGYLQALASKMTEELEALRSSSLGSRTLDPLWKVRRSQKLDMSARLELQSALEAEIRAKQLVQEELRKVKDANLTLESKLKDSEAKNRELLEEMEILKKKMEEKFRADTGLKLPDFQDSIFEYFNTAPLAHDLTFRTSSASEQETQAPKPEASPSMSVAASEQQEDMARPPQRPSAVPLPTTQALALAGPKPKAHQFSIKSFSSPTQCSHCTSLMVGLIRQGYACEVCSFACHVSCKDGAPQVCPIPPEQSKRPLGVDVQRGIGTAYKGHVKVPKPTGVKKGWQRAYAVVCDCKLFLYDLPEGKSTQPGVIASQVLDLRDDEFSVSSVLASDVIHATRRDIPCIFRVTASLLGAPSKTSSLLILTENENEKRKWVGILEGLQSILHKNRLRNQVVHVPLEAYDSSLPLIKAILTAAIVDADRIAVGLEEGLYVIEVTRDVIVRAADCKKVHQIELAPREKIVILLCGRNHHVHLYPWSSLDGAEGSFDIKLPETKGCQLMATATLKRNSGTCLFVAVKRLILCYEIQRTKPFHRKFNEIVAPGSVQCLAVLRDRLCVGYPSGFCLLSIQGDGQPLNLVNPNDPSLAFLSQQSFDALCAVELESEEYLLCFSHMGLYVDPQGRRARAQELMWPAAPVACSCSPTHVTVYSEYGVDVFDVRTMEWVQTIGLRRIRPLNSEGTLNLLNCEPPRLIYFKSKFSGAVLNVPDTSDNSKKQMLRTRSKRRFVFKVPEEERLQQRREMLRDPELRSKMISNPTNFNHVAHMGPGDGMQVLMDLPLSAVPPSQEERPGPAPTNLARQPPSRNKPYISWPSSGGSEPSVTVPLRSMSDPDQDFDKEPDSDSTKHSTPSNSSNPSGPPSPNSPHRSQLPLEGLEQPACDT
MAPKAPK3 (human), sequence (Q16644 whole entry, looked up): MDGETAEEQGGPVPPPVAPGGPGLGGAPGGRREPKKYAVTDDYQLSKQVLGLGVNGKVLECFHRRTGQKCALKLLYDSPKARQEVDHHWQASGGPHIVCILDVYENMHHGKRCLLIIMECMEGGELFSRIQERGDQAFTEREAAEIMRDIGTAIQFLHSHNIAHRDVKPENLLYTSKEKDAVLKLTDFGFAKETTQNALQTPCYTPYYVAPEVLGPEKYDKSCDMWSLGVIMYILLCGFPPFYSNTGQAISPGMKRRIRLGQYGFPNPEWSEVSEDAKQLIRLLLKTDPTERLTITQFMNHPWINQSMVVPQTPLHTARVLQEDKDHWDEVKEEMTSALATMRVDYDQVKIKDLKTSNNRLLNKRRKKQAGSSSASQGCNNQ
STK24 (human), sequence (Q9Y6E0 whole entry, looked up): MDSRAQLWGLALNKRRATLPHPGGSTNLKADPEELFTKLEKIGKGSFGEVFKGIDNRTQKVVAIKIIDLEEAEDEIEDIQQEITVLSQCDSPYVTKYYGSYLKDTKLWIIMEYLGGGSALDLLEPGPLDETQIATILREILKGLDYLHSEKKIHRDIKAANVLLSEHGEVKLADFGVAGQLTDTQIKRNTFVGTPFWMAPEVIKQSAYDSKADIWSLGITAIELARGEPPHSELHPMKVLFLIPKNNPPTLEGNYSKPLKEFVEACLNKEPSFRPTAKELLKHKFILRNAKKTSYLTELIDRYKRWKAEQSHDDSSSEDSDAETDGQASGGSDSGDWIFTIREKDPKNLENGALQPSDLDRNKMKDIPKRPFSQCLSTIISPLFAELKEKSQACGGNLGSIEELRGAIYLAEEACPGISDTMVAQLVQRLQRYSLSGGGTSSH
HCK (human), sequence (P08631 whole entry, looked up): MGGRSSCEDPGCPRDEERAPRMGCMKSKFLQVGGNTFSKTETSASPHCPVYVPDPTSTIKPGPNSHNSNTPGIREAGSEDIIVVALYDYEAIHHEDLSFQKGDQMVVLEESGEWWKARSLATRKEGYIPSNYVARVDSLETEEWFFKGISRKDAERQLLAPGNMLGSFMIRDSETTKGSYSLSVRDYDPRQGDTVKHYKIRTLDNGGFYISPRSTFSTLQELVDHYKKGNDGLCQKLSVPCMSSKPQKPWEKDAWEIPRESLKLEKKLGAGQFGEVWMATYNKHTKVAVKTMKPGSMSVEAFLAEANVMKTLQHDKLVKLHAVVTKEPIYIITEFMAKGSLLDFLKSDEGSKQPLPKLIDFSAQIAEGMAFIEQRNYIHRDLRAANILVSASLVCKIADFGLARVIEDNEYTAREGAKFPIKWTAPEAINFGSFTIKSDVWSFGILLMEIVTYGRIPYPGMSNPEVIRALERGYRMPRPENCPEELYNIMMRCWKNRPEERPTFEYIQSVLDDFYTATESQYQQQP
DDR1 (human), sequence (Q08345 whole entry, looked up): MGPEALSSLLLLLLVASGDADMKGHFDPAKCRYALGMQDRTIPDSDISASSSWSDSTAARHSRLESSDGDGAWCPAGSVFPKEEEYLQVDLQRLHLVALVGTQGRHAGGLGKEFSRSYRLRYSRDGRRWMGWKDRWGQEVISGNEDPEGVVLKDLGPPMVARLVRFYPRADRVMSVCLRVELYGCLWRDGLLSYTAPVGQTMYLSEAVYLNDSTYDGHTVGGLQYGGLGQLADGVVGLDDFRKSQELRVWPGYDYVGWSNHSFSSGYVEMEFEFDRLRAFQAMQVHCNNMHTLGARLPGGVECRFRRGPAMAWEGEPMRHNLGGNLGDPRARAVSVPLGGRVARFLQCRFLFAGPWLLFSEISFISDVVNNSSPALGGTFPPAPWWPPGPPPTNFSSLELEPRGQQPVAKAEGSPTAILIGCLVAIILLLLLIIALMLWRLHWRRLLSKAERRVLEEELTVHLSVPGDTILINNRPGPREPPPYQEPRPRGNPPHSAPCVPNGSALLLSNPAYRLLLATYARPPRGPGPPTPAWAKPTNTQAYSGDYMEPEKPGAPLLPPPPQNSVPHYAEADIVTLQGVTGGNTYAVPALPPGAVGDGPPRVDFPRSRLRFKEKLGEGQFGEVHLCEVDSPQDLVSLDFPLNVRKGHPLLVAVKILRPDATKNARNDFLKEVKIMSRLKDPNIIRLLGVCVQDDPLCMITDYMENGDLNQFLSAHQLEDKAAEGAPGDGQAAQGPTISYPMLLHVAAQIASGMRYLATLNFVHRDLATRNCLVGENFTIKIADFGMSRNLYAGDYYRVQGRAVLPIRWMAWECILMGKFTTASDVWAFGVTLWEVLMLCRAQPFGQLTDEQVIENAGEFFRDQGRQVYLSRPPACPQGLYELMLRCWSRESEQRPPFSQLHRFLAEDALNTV
CLK2 (human), sequence (P49760 whole entry, looked up): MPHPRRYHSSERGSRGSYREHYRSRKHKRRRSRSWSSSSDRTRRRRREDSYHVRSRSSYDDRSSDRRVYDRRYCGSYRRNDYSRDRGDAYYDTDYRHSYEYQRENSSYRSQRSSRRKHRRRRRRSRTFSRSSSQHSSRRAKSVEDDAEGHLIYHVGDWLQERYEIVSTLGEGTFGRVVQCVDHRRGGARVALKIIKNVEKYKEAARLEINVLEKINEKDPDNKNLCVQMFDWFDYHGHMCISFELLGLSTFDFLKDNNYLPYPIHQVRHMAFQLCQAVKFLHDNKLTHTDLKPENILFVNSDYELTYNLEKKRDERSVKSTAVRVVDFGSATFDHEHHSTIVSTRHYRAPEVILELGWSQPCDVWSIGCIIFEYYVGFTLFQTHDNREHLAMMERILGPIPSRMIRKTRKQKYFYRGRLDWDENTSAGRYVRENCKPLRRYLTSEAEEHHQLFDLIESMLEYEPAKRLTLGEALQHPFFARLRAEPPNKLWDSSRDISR

Q: With `CNC(=O)c1cc(Oc2ccc(NC(=O)Nc3ccc(Cl)c(C(F)(F)F)c3)cc2)ccn1` as the compound, how does the inhibition (AURKC (human); compound 0.02 µM) read?
A: 0%

Q: And the inhibition (AURKC (human); compound 0.2 µM)?
A: 11.8%

Q: What about the inhibition (BLK (human); compound 0.02 µM) of the same compound?
A: 1%

Q: What about the inhibition (BLK (human); compound 0.2 µM) of the same compound?
A: 6.4%

Q: What about the inhibition (CAMK2A (human); compound 0.02 µM) of the same compound?
A: -2.1%

Q: What about the inhibition (CAMK2A (human); compound 0.2 µM) of the same compound?
A: 5.8%

Q: And the inhibition (CDC42BPB (human); compound 0.02 µM)?
A: -3.1%

Q: And the inhibition (CDC42BPB (human); compound 0.2 µM)?
A: 0.8%

Q: And the inhibition (CHEK2 (human); compound 0.02 µM)?
A: -0.8%

Q: And the inhibition (CHEK2 (human); compound 0.2 µM)?
A: 2.2%

Q: What about the inhibition (CLK2 (human); compound 0.02 µM) of the same compound?
A: -0.7%

Q: What about the inhibition (CLK2 (human); compound 0.2 µM) of the same compound?
A: -2.1%

Q: What about the inhibition (CLK3 (human); compound 0.02 µM) of the same compound?
A: -7.5%

Q: And the inhibition (CLK3 (human); compound 0.2 µM)?
A: 5.9%

Q: What about the inhibition (CSNK1D (human); compound 0.02 µM) of the same compound?
A: -2.4% and -2.9%

Q: And the inhibition (CSNK1D (human); compound 0.2 µM)?
A: -3.6%

Q: And the inhibition (CSNK2A2 (human); compound 0.02 µM)?
A: -3.5%

Q: What about the inhibition (CSNK2A2 (human); compound 0.2 µM) of the same compound?
A: 0.9%

Q: What about the inhibition (DDR1 (human); compound 0.02 µM) of the same compound?
A: 4.2%

Q: What about the inhibition (DDR1 (human); compound 0.2 µM) of the same compound?
A: 88.7%

Q: What about the inhibition (DYRK3 (human); compound 0.02 µM) of the same compound?
A: -5.8%

Q: What about the inhibition (DYRK3 (human); compound 0.2 µM) of the same compound?
A: 2.1%

Q: And the inhibition (EPHA1 (human); compound 0.02 µM)?
A: -1.2%

Q: And the inhibition (EPHA1 (human); compound 0.2 µM)?
A: 8%

Q: What about the inhibition (EPHA8 (human); compound 0.02 µM) of the same compound?
A: 2.5%

Q: What about the inhibition (EPHA8 (human); compound 0.2 µM) of the same compound?
A: 37.2%

Q: What about the inhibition (HCK (human); compound 0.02 µM) of the same compound?
A: -11.6%

Q: And the inhibition (HCK (human); compound 0.2 µM)?
A: 5.2%

Q: What about the inhibition (MAPK1 (human); compound 0.02 µM) of the same compound?
A: -3.9%

Q: What about the inhibition (MAPK1 (human); compound 0.2 µM) of the same compound?
A: -4.1%

Q: And the inhibition (MAPKAPK3 (human); compound 0.02 µM)?
A: -6.2%

Q: And the inhibition (MAPKAPK3 (human); compound 0.2 µM)?
A: 3.5%

Q: What about the inhibition (MARK4 (human); compound 0.02 µM) of the same compound?
A: 1.4%

Q: What about the inhibition (MARK4 (human); compound 0.2 µM) of the same compound?
A: 1.6%

Q: And the inhibition (MINK1 (human); compound 0.02 µM)?
A: -3.3%

Q: And the inhibition (MINK1 (human); compound 0.2 µM)?
A: 4.1%

Q: What about the inhibition (MST4 (human); compound 0.02 µM) of the same compound?
A: -5.7%

Q: And the inhibition (MST4 (human); compound 0.2 µM)?
A: 0.1%

Q: And the inhibition (MUSK (human); compound 0.02 µM)?
A: 24.4%

Q: And the inhibition (MUSK (human); compound 0.2 µM)?
A: 73.9%

Q: And the inhibition (MYLK2 (human); compound 0.02 µM)?
A: -3.3%

Q: And the inhibition (MYLK2 (human); compound 0.2 µM)?
A: -2.4%

Q: What about the inhibition (NTRK2 (human); compound 0.02 µM) of the same compound?
A: 3.2%

Q: And the inhibition (NTRK2 (human); compound 0.2 µM)?
A: 37.4%

Q: What about the inhibition (NUAK1 (human); compound 0.02 µM) of the same compound?
A: -3.8%

Q: What about the inhibition (NUAK1 (human); compound 0.2 µM) of the same compound?
A: 3.8%

Q: What about the inhibition (PRKAA2 (human); compound 0.02 µM) of the same compound?
A: -5.3%

Q: What about the inhibition (PRKAA2 (human); compound 0.2 µM) of the same compound?
A: 10.4%

Q: And the inhibition (PRKACG (human); compound 0.02 µM)?
A: -6.6%

Q: What about the inhibition (PRKACG (human); compound 0.2 µM) of the same compound?
A: -6%

Q: What about the inhibition (PRKCE (human); compound 0.02 µM) of the same compound?
A: 0.4%

Q: What about the inhibition (PRKCE (human); compound 0.2 µM) of the same compound?
A: 6%

Q: What about the inhibition (PRKCI (human); compound 0.02 µM) of the same compound?
A: -0.2%

Q: What about the inhibition (PRKCI (human); compound 0.2 µM) of the same compound?
A: 5.7%

Q: And the inhibition (PRKCZ (human); compound 0.02 µM)?
A: 0%

Q: And the inhibition (PRKCZ (human); compound 0.2 µM)?
A: 11.3%

Q: What about the inhibition (SIK1 (human); compound 0.02 µM) of the same compound?
A: -3.4%

Q: And the inhibition (SIK1 (human); compound 0.2 µM)?
A: 7.3%

Q: And the inhibition (SPHK2 (human); compound 0.02 µM)?
A: -6%

Q: What about the inhibition (SPHK2 (human); compound 0.2 µM) of the same compound?
A: 7.1%

Q: And the inhibition (STK24 (human); compound 0.02 µM)?
A: -3.9%

Q: What about the inhibition (STK24 (human); compound 0.2 µM) of the same compound?
A: 5.6%

Q: What about the inhibition (TAB1 (human); compound 0.02 µM) of the same compound?
A: 4.8%

Q: And the inhibition (TAB1 (human); compound 0.2 µM)?
A: 14.3%
